Experimental data taken from US11679107B2 (Eisai R&D Management Co., Ltd., priority 2018, dated 2023).
Where two headings read alike, the source gives them in different places.

Legend:
[1] = tested on: NCI-H1568 cells (high MCL1); assay: Cell proliferation and viability, CellTiter-Glo, 72 hours; format: cell-based; conditions: for GI50: geometric mean
In short: (§1)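 ATP luminescence (CellTiter-Glo) was measured 72 h after treatment with compound at 10 μM–100 pM (11 points, half-log) in 0.1% DMSO. The Panc line was grown in RPMI-1640 plus insulin and 15% FBS, the other in 10% FBS. Data were normalised to time zero and vehicle controls, where −100% is cidal and 0% static.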

[2] = tested on: Panc 05.04 cells (SF3b K700E mutant); assay: as above; format: cell-based; conditions: for GI50: geometric mean
In short: as §1

SF3b complexes = biological target: T1, SF3b complexes (Homo sapiens, UniProt O75533+Q7RTV0); assay: Scintillation proximity assay (SPA) with [3H]-labelled pladienolide probe; format: binding; conditions: SF3B1 (WT); geometric mean; read-out: SPA-ATS GMean IC50 (nM) SF3B1 (WT)
T1 construct: endogenous in cells; host or cells: Nuclear extracts; A HeLa S3 extract preparation is described for the in vitro splicing assay
In short: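 SF3b complexes captured from nuclear extracts on anti-SF3B1 antibody SPA beads; test compounds pre-incubated 30 min before 2.5 nM [3H]-pladienolide probe added, then 30 min incubation. Bound probe read by scintillation; values from non-linear regression of concentration–response curves.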

[3] = tested on: Ad2 variant pre-mRNAs spliced in HeLa S3 nuclear extracts; assay: In vitro splicing assay (IVS), RT-qPCR of spliced product; format: biochemical; conditions: for IC50: geometric mean; for Ratio Ad2.1/2.2: ratio of IVS IC50 Ad2.1 to Ad2.2
In short: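 Read-out is one-step TaqMan RT-qPCR of spliced Ad2 mRNA with Ftz as reference, normalized to DMSO and fit by non-linear regression. Reactions held HeLa S3 nuclear extract, 2 ng Ad2-derived pre-mRNA and test compound, with 15 min preincubation. Splicing was started with ATP-containing activation buffer and run 90 min at 30 °C.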

[4] = NCI-H1568, read-out: CTGlo-ATS GMean GI50 (nM) 72 h NCIH1568.1, NCIH1568.1 cells, 72 h
[5] = NCIH1568.1 cells, 72 h, −100% cidal, 0% static, 100% maximal growth
[6] = PANC0504.1 cells, 72 h, −100% cidal, 0% static, 100% maximal growth
[7] = Panc 05.04, read-out: CTGlo-ATS GMean GI50 (nM) 72 h PANC0504.1, PANC0504.1 cells, 72 h
[8] = Ad2.1 pre-mRNA substrate, read-out: qPCR-IVS-ATS GMean IC50 (nM) Ad2.1
[9] = Ad2.2 pre-mRNA substrate, read-out: qPCR-IVS-ATS GMean IC50 (nM) Ad2.2
[10] = NCI-H1568, 72 h, read-out: CTGlo-ATS GMean GI50 (nM) 72 h NCIH1568.1, NCIH1568.1 cells, 72 h
[11] = Panc 05.04, 72 h, read-out: CTGlo-ATS GMean GI50 (nM) 72 h PANC0504.1, PANC0504.1 cells, 72 h
[12] = 72 h, NCIH1568.1, -100% = cidal, 0% = static, 100% = uninhibited growth
[13] = NCI-H1568, read-out: CTGlo-ATS GMean GI50 (nM) 72 h NCIH1568.1, 72 h, NCIH1568.1
[14] = 72 h, PANC0504.1, -100% = cidal, 0% = static, 100% = uninhibited growth
[15] = Panc 05.04, read-out: CTGlo-ATS GMean GI50 (nM) 72 h PANC0504.1, 72 h, PANC0504.1

Compound	GI50 [1, 4] [nM]	CTGlo-ATS Mean MinResponse % 72 h NCIH1568.1 [1, 5] [%]	CTGlo-ATS Mean MinResponse % 72 h PANC0504.1 [2, 6] [%]	GI50 [2, 7] [nM]	IC50 (SF3b complexes) [nM]	IC50 [3, 8] [nM]	IC50 [3, 9] [nM]	GI50 [1, 10] [nM]	GI50 [2, 11] [nM]	CTGlo-ATS Mean MinResponse % 72 h NCIH1568.1 [1, 12] [%]	GI50 [1, 13] [nM]	CTGlo-ATS Mean MinResponse % 72 h PANC0504.1 [2, 14] [%]	GI50 [2, 15] [nM]	Ratio Ad2.1/2.2 [3]	GI50 ([1]; NCI-H1568, 72 h, read-out: CTGlo-ATS GMean GI50 (nM) 72 h NCIH1568.1, 72 h, NCIH1568.1) [nM]	GI50 ([2]; Panc 05.04, 72 h, read-out: CTGlo-ATS GMean GI50 (nM) 72 h PANC0504.1, 72 h, PANC0504.1) [nM]
C/C(=C\c1cc(F)c2cnn(CC(=O)N3CCOCC3)c2c1)[C@H]1OC(=O)C[C@H](O)CC[C@H](C)[C@@H](OC(=O)N2CCN(C)CC2)/C=C/[C@@H]1C [Compound 130]	12	−72.458	−93.452	18.3	37.1	43.9	30	–	–	–	–	–	–	–	–	–
C/C(=C\c1cc(F)cc(N2CCN(CCO)CC2)c1)[C@H]1OC(=O)C[C@H](O)CC[C@H](C)[C@@H](OC(=O)N(C)C2CCN(C)CC2)/C=C/[C@@H]1C [Compound 54]	7.81	−96.584	−94.487	8.66	4.29	12.4	15.8	–	–	–	–	–	–	–	–	–
C/C(=C\c1cc(F)cc(N2CCC[C@@H]2CO)c1)[C@H]1OC(=O)C[C@H](O)CC[C@H](C)[C@@H](OC(=O)N2CCN(C)CC2)/C=C/[C@@H]1C [Compound 44]	–	−14.871	−92.314	–	8.26	12800	86.6	67.2	41.5	–	–	–	–	–	–	–
C/C(=C\c1cccc(COC(=O)N2CC[C@@H](F)C2)c1)[C@H]1OC(=O)C[C@H](O)CC[C@H](C)[C@@H](OC(=O)N2CCN(C)CC2)/C=C/[C@@H]1C (single isomer, unassigned) [Compound 256]	–	–	–	–	15.6	> 25000	112	–	–	−5.090	60.9	−88.839	43.4	222.862	–	–
C/C(=C\c1cc(F)cc(N2CCN(CC3CC3)C2=O)c1)[C@H]1OC(=O)C[C@H](O)CC[C@H](C)[C@@H](OC(=O)N2CCN(C)CC2)/C=C/[C@@H]1C [Compound 68]	12.4	−67.270	−93.925	11.7	3.39	1870	35.7	–	–	–	–	–	–	–	–	–
C/C(=C\c1cc(F)c2nn(C3CCOCC3)nc2c1)[C@H]1OC(=O)C[C@H](O)CC[C@H](C)[C@@H](OC(=O)N2CCN(C)CC2)/C=C/[C@@H]1C [Compound 141]	48.8	−63.745	−94.865	72.4	13	> 25000	61.3	–	–	–	–	–	–	–	–	–
C/C(=C\c1cc(F)cc(N2CCOCC2)c1)[C@H]1OC(=O)C[C@H](O)CC[C@H](C)[C@@H](OC(=O)N2CCN(C)[C@H](C)C2)/C=C/[C@@H]1C [Compound 23]	10.8	−64.974	−90.781	10.4	4.23	369	28.3	–	–	–	–	–	–	–	–	–
C/C(=C\c1cc(F)cc(N2CCN(CCO)C(=O)C2)c1)[C@H]1OC(=O)C[C@H](O)CC[C@H](C)[C@@H](OC(=O)N2CCN(C)CC2)/C=C/[C@@H]1C [Compound 104]	5.1	−69.040	−86.795	4.58	2.1	31.9	13.9	–	–	–	–	–	–	–	–	–
C/C(=C\c1cccc(COC(=O)N(C)C)c1)[C@H]1OC(=O)C[C@H](O)CC[C@H](C)[C@@H](OC(=O)N2CCN(C)CC2)/C=C/[C@@H]1C [Compound 258, [(2S,3S,4E,6R,7S,10R)-2-[(E)-1-[3-(dimethylcarbamoyloxymethyl)phenyl]prop-1-en-2-yl]-10-hydroxy-3,7-dimethyl-12-oxo-1-oxacyclododec-4-en-6-yl] 4-methylpiperazine-1-carboxylate]	–	–	–	–	11.7	> 25000	73.8	–	–	−12.669	–	−65.918	–	338.606	29.8	28.7
C/C(=C\c1cc(F)cc(N2CCS(=O)(=O)CC2)c1)[C@H]1OC(=O)C[C@H](O)CC[C@H](C)[C@@H](OC(=O)N2CCN(C)CC2)/C=C/[C@@H]1C [Compound 52]	–	−63.079	−76.609	–	8.3	39.6	45.4	23.3	13.6	–	–	–	–	–	–	–
C/C(=C\c1cnn(Cc2ccncc2)c1)[C@H]1OC(=O)C[C@H](O)CC[C@H](C)[C@@H](OC(=O)N2CCN(C)CC2)/C=C/[C@@H]1C [Compound 102]	4900	31.099	24.371	3020	29.8	> 25000	507	–	–	–	–	–	–	–	–	–
COCC(=O)N1CCN(c2cc(F)cc(/C=C(\C)[C@H]3OC(=O)C[C@H](O)CC[C@H](C)[C@@H](OC(=O)N4CCN(C)CC4)/C=C/[C@@H]3C)c2)CC1 [Compound 108]	2.47	−79.118	−82.618	3.31	2.03	16.8	14.3	–	–	–	–	–	–	–	–	–
C=CS(=O)(=O)N1CCN(c2cc(F)cc(/C=C(\C)[C@H]3OC(=O)C[C@H](O)CC[C@H](C)[C@@H](OC(=O)N4CCN(C)CC4)/C=C/[C@@H]3C)c2)CC1 [Compound 74]	4.69	−99.528	−64.747	13.1	4.88	34.5	20.8	–	–	–	–	–	–	–	–	–
C/C(=C\c1cccc(S(=O)(=O)N2CCC2)c1)[C@H]1OC(=O)C[C@H](O)CC[C@H](C)[C@@H](OC(=O)N2CCN(C)CC2)/C=C/[C@@H]1C [Compound 198, [(2S,3S,4E,6R,7S,10R)-2-[(E)-1-[3-(azetidin-1-ylsulfonyl)phenyl]prop-1-en-2-yl]-10-hydroxy-3,7-dimethyl-12-oxo-1-oxacyclododec-4-en-6-yl] 4-methylpiperazine-1-carboxylate]	–	–	–	–	7.82	2390	43.2	–	–	−56.095	15.5	−96.773	21.7	55.224	–	–
C/C(=C\c1cc(F)cc(N2CC3CCC(C2)O3)c1)[C@H]1OC(=O)C[C@H](O)CC[C@H](C)[C@@H](OC(=O)N2CCN(C)CC2)/C=C/[C@@H]1C [Compound 32]	10	−74.701	−69.289	6.53	3.24	19.5	16.2	–	–	–	–	–	–	–	–	–
C/C(=C\c1cc(F)cc(N2CCOCC2)c1)[C@H]1OC(=O)C[C@H](O)CC[C@H](C)[C@@H](OC(=O)N2CCN(C(C)(C)C)CC2)/C=C/[C@@H]1C [Compound 25]	20.6	−49.158	−88.378	20.5	4.94	430	46.4	–	–	–	–	–	–	–	–	–
C/C(=C\c1cc(F)cc(N2CCOCC2)c1)[C@H]1OC(=O)C[C@H](O)CC[C@H](C)[C@@H](OC(=O)N(C)C2CN3CCC2CC3)/C=C/[C@@H]1C (some centres unmarked) [Compound 98]	–	−75.954	−87.759	–	3.45	159	35.9	11.5	10.3	–	–	–	–	–	–	–
